One assay has as its target HTLV-2 PR (Human T-cell leukemia virus 2, UniProt P03363). The assay can be described thus: Protease activity assay with oligopeptide substrates (RP-HPLC), HTLV-2 PR. It counts as biochemical, human T-cell leukemia virus type 2. Also noted: made in house; host or cells: E. coli BL21(DE3). As to conditions: pH 5.6, 37 °C. The source says:
(§1) The oligopeptides representing the naturally occurring matrix/capsid (MA/CA), capsid/nucleocapsid (CA/NC), trans-frame protein/protease (TF1/PR), and PR/p1 cleavage sites of HTLV-1, -2, and -3 PRs were used as substrates. The oligopeptide substrates representing the natural sequences of HTLV PRs were ordered from BioBasic, while the oligopeptide substrates representing naturally occurring cleavage sites of various viruses, or the wild-type, the shortened, and the P4, P3, P2, P1, or P1′ variants of HTLV-1 MA/CA cleavage site (KTKVL*VVQPK) were in-house stocks. All peptides were dissolved in distilled water.
(§2) For kinetic measurements, we applied 10 µL 2× incubation buffer (0.5 M K3PO4, 4 M NaCl, 10 v/v% glycerol, 10 mM DTT, pH 5.6), 5 µL of HTLV-1, HTLV-2, or HTLV-3 PR (final concentration of the active enzyme was in 0.1–34.4 nM), and 0.5–5 µL oligopeptide substrate representing HTLV PR natural cleavage sites (0.05–1.10 mM final concentration). The final volume of the reaction mixture was set to 20 µL with distilled water if it was necessary. The reactions were initiated by the addition of the enzyme, were incubated at 37 °C for 0.5–4 h, and stopped by the addition of 180 µL 1 v/v% TFA. For substrates representing natural cleavage sites of retroviruses other than HTLV-1, -2, and -3 PRs (HIV-1, equine infectious anemia virus (EIAV), Rous sarcoma virus (RSV), mouse mammary tumor virus (MMTV), Mason-Pfizer monkey virus (MPMV), and murine leukemia virus (MuLV) and BLV) in a longer incubation time (24 h) was also applied. The cleavage products were separated by using a Nova-Pack C18 RP-HPLC column (3.9 mm × 150 mm, Waters Associates Inc, Milford, MA, USA) on HPLC (Merck-Hitachi LaChrom). Water-acetonitrile gradient (0–100%) was used for separation in the presence of 0.05% TFA at 2 mL/min flow rate. The kinetic parameters were determined by fitting the data—obtained at less than 20% substrate hydrolysis—to the Michaelis–Menten equation. The Gaussian equation was used to determine pH optimum and exponential growth equation for determination of optimal NaCl concentration, while linear regression was applied to plot the dependence of enzyme activity on temperature. Prism8 software (GraphPad Software Inc., San Diego, CA, USA) was used for evaluation. The kcat/KM catalytic constants were calculated based on the active enzyme concentration, which was determined by active site titration using the method described previously.

In the next assay the test system is HIV-1 PR. As to conditions: cleavage sites of viruses other than HTLV, retrieved from the literature, ref [28]; cited from earlier work. The source says: (§3) Table 3 Catalytic efficiencies of HTLV PRs on different substrates representing natural cleavage site sequences of viruses other than HTLV. Cleavage sites are labelled by an asterisk within the sequences. Abbreviations: MA (matrix), CA (capsid), NC (nucleocapsid), TF (transframe), RT (reverse-transcriptase), and IN (integrase). | column: kcat/KM (mM^−1 s^−1) / HIV-1 PR ^1

The next assay concerns HTLV-1 PR. As to conditions: cited from earlier work.
Description: as §3, with “Table 2 Catalytic efficiencies of HTLV PRs on different substrates representing natural cleavage site sequences. Cleavage sites are labelled by asterisks within the sequences. Abbreviations: MA (matrix), CA (capsid), NC (nucleocapsid), and TF1 (trans-frame 1). | column: kcat/KM [mM^−1 s^−1] / HTLV-1 PR || Table” for “Table”, “column: Substrate;” for “column:”, “HTLV-1” for “HIV-1”

The next assay addresses HTLV-3 PR (Human T-cell leukemia virus 3, UniProt Q4U0X6). Briefly: Protease activity assay with oligopeptide substrates (RP-HPLC), HTLV-3 PR. It counts as biochemical, human T-cell leukemia virus type 3. As to conditions: pH 5.6, 37 °C. Also noted: made in house; host or cells: E. coli BL21(DE3), pET11a.
Description: as §1, §2

[1] abbreviates: cleavage sites of viruses other than HTLV, longer incubation time (24 h) also applied.
Setting [2] is: cleavage sites of viruses other than HTLV, retrieved from the literature, ref [28].
Where [3] appears, read: natural HTLV cleavage sites, substrate 0.05–1.10 mM, 2× buffer 0.5 M K3PO4, 4 M NaCl, 10 v/v% glycerol, 10 mM DTT, 0.5–4 h.
[4] abbreviates: natural HTLV-1 cleavage site substrates, previously reported values, ref [34].

The values below come from article PMC7915765, “Biochemical Characterization, Specificity and Inhibition Studies of HTLV-1, HTLV-2, and HTLV-3 Proteases” (Life, 2021).

As a reminder, the kcat/KM is the turnover number divided by the Michaelis constant.

Where two headings read alike, the source gives them in different places. A value given as a limit tells only on which side of the number the result lay.

Chain of HTLV-3 PR (Q4U0X6 431-553): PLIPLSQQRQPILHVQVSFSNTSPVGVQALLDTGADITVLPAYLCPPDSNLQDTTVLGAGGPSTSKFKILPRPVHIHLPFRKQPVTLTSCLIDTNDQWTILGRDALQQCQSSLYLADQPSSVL
Chain of HTLV-2 PR (P03363 447-571): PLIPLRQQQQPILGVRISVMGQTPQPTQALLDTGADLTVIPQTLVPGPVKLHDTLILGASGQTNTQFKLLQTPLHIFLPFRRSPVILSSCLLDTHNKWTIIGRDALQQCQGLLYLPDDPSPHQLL

Consider “AKLVL*AQLSK [EIAV PR/RT, oligopeptide substrate AKLVL*AQLSK]”, for which the catalytic efficiency (kcat/KM) result is “not cleaved” on HTLV-2 PR (setting [1]), 13400 M⁻¹ s⁻¹ in the assay on HIV-1 PR, “not cleaved” in the assay on HTLV-1 PR (setting [2]) and “not cleaved” at HTLV-3 PR (setting [1]).

As to “APQVL*PVMHP [HTLV-1 MA/CA, oligopeptide substrate APQVL*PVMHP]”, the specificity constant (kcat/KM) is 5500 ± 1000 M⁻¹ s⁻¹ on HTLV-2 PR (setting [3]), 85.2 ± 26.1 ^1 mM^−1 s^−1 with HTLV-1 PR (setting [4]) and 32500 ± 6700 M⁻¹ s⁻¹ on HTLV-3 PR (setting [3]).

As to “CTLNF*PISP [HIV-1 PR/RT, oligopeptide substrate CTLNF*PISP]”, the kcat/KM entry was “not cleaved” at HTLV-2 PR (setting [1]), 24100 M⁻¹ s⁻¹ in the assay with HIV-1 PR, “not cleaved” in the assay with HTLV-1 PR (setting [2]) and “not cleaved” on HTLV-3 PR (setting [1]).

As for “DELIL*PVKRK [MMTV P3/P8, oligopeptide substrate DELIL*PVKRK]”, the kcat/KM entry is “not cleaved” on HTLV-2 PR (setting [1]), 1500 M⁻¹ s⁻¹ with HIV-1 PR, 2.6 mM⁻¹ s⁻¹ in the assay with HTLV-1 PR (setting [2]) and “not cleaved” on HTLV-3 PR (setting [1]).

As to “DPASIL*PVIP [HTLV-1 TF1/PR, oligopeptide substrate DPASIL*PVIP]”, the kcat/KM on HTLV-2 PR (setting [3]) is 400 ± 100 M⁻¹ s⁻¹; in the assay on HTLV-1 PR (setting [4]), 3.8 ± 0.6 ^1 mM^−1 s^−1; at HTLV-3 PR (setting [3]) it was 1200 ± 400 M⁻¹ s⁻¹.

For “DSKAF*LADTW [MMTV PP21/P3, oligopeptide substrate DSKAF*LADTW]”, the kcat/KM result is “not cleaved” at HTLV-2 PR (setting [1]), 7500 M⁻¹ s⁻¹ with HIV-1 PR, “not cleaved” in the assay on HTLV-1 PR (setting [2]) and “not cleaved” on HTLV-3 PR (setting [1]).

In the case of “ERQAN*FLGKI [HIV-1 NC/P1, oligopeptide substrate ERQAN*FLGKI]”, the kcat/KM entry was “not cleaved” at HTLV-2 PR (setting [1]), 1000 M⁻¹ s⁻¹ with HIV-1 PR, “not cleaved” in the assay with HTLV-1 PR (setting [2]) and “not cleaved” at HTLV-3 PR (setting [1]).

Consider “IAAAM*SSAIQ [RSV CA/P3, oligopeptide substrate IAAAM*SSAIQ]”, for which the kcat/KM entry on HTLV-2 PR (setting [1]), with HIV-1 PR, with HTLV-1 PR (setting [2]) and at HTLV-3 PR (setting [1]) was “not cleaved” each time.

On to “IQPLIM*AVVNR [RSV P3/NC, oligopeptide substrate IQPLIM*AVVNR]”, for which the kcat/KM entry on HTLV-2 PR (setting [1]) is “not cleaved”; with HIV-1 PR, 318000 M⁻¹ s⁻¹; in the assay with HTLV-1 PR (setting [2]), above 100 mM⁻¹ s⁻¹; at HTLV-3 PR (setting [1]) it was “not cleaved”.

In the case of “KARVL*AEAMS [HIV-1 CA/P2, oligopeptide substrate KARVL*AEAMS]”, the specificity constant (kcat/KM) result is “not cleaved” on HTLV-2 PR (setting [1]), 90000 M⁻¹ s⁻¹ in the assay on HIV-1 PR, “not cleaved” in the assay with HTLV-1 PR (setting [2]) and “not cleaved” on HTLV-3 PR (setting [1]).

As for “KEEIM*LAYQG [EIAV RT/RH, oligopeptide substrate KEEIM*LAYQG]”, the kcat/KM entry was “not cleaved” at HTLV-2 PR (setting [1]), 18300 M⁻¹ s⁻¹ with HIV-1 PR, below 0.01 mM⁻¹ s⁻¹ with HTLV-1 PR (setting [2]) and “not cleaved” on HTLV-3 PR (setting [1]).

As for “KGPPVIL*PIQAP [HTLV-1 PR/P1, oligopeptide substrate KGPPVIL*PIQAP]”, the kcat/KM is 20600 ± 2800 M⁻¹ s⁻¹ on HTLV-2 PR (setting [3]), 288.3 ± 73.6 ^1 mM^−1 s^−1 in the assay with HTLV-1 PR (setting [4]) and 238400 ± 60100 M⁻¹ s⁻¹ on HTLV-3 PR (setting [3]).

In the case of “KQPAIL*VHTPG [BLV CA/NC, oligopeptide substrate KQPAIL*VHTPG]”, the catalytic efficiency (kcat/KM) entry at HTLV-2 PR (setting [1]), in the assay on HIV-1 PR, with HTLV-1 PR (setting [2]) and on HTLV-3 PR (setting [1]) was “not cleaved” each time.

For “KTKVL*VVQPK [HTLV-1 CA/NC, oligopeptide substrate KTKVL*VVQPK]”, the kcat/KM on HTLV-2 PR (setting [3]) is 67200 ± 33400 M⁻¹ s⁻¹; in the assay with HTLV-1 PR (setting [4]) it was 150.6 ± 15.1 ^1 mM^−1 s^−1; at HTLV-3 PR (setting [3]) it was 30100 ± 15400 M⁻¹ s⁻¹.

In the case of “LTFTF*PVVFMRR [MMTV N/CA, oligopeptide substrate LTFTF*PVVFMRR]”, the specificity constant (kcat/KM) entry is “not cleaved” on HTLV-2 PR (setting [1]), 900 M⁻¹ s⁻¹ in the assay on HIV-1 PR, 0.01 mM⁻¹ s⁻¹ in the assay with HTLV-1 PR (setting [2]) and “not cleaved” at HTLV-3 PR (setting [1]).

As to “PKDIF*PVTET [MPMV P12/CA, oligopeptide substrate PKDIF*PVTET]”, the catalytic efficiency (kcat/KM) result on HTLV-2 PR (setting [1]) is “not cleaved”; in the assay on HIV-1 PR, 200 M⁻¹ s⁻¹; in the assay with HTLV-1 PR (setting [2]), 0.2 mM⁻¹ s⁻¹; on HTLV-3 PR (setting [1]), “not cleaved”.

“PPAIL*PIISE [BLV MA/CA, oligopeptide substrate PPAIL*PIISE]”: the catalytic efficiency (kcat/KM) result at HTLV-2 PR (setting [1]) was “not cleaved”; in the assay with HIV-1 PR, 300 M⁻¹ s⁻¹; with HTLV-1 PR (setting [2]) it was 164.5 mM⁻¹ s⁻¹; on HTLV-3 PR (setting [1]) it was “not cleaved”.

As for “PPAVS*LAMTM [RSV NC/PR, oligopeptide substrate PPAVS*LAMTM]”, the kcat/KM entry on HTLV-2 PR (setting [1]) is “not cleaved”; in the assay on HIV-1 PR, 130 M⁻¹ s⁻¹; in the assay on HTLV-1 PR (setting [2]), “not cleaved”; on HTLV-3 PR (setting [1]), “not cleaved”.

Take “PPMVG*VLDAP [BLV PR/P13, oligopeptide substrate PPMVG*VLDAP]”: the specificity constant (kcat/KM) result on HTLV-2 PR (setting [1]) is “not cleaved”; with HIV-1 PR it was 40 M⁻¹ s⁻¹; in the assay with HTLV-1 PR (setting [2]), 0.7 mM⁻¹ s⁻¹; at HTLV-3 PR (setting [1]), “not cleaved”.

In the case of “PPVGFAG*AMA [MMTV P8/N, oligopeptide substrate PPVGFAG*AMA]”, the specificity constant (kcat/KM) result was “not cleaved” on HTLV-2 PR (setting [1]), below 10 M⁻¹ s⁻¹ in the assay with HIV-1 PR, “not cleaved” in the assay on HTLV-1 PR (setting [2]) and “not cleaved” on HTLV-3 PR (setting [1]).

Turning to “PPYVG*SGLYP [RSV P2B/P10, oligopeptide substrate PPYVG*SGLYP]”, the kcat/KM result at HTLV-2 PR (setting [1]), with HIV-1 PR, with HTLV-1 PR (setting [2]) and at HTLV-3 PR (setting [1]) was “not cleaved” each time.

As to “PRSSLY*PALTP [MuLV MA/P12, oligopeptide substrate PRSSLY*PALTP]”, the catalytic efficiency (kcat/KM) entry is “not cleaved” at HTLV-2 PR (setting [1]), 200 M⁻¹ s⁻¹ in the assay on HIV-1 PR, “not cleaved” with HTLV-1 PR (setting [2]) and “not cleaved” on HTLV-3 PR (setting [1]).

For “PSEEY*PIMID [EIAV MA/CA, oligopeptide substrate PSEEY*PIMID]”, the kcat/KM result was “not cleaved” at HTLV-2 PR (setting [1]), 15200 M⁻¹ s⁻¹ in the assay with HIV-1 PR, 0.7 mM⁻¹ s⁻¹ in the assay on HTLV-1 PR (setting [2]) and “not cleaved” on HTLV-3 PR (setting [1]).

For “PVVAM*PVVIK [RSV P10/CA, oligopeptide substrate PVVAM*PVVIK]”, the kcat/KM entry on HTLV-2 PR (setting [1]) is “not cleaved”; in the assay on HIV-1 PR, “not cleaved”; in the assay on HTLV-1 PR (setting [2]) it was 0.1 mM⁻¹ s⁻¹; at HTLV-3 PR (setting [1]), “not cleaved”.
